Source: patent US20100137367A1, “NOVEL CRYSTALLINE BEPOTASTINE METAL SALT HYDRATE, METHOD FOR PREPARING SAME, AND PHARMACEUTICAL COMPOSITION COMPRISING SAME” (Hanmi Pharm. Co., Ltd., priority 2007, published 2010)
Like-named read-outs stand apart in the source and are kept apart here.

Legend:
[1] = Hygroscopicity of bepotastine salts (Table 1); assay type: physicochemical
Source text: Further, when the crystalline bepotastine metal salt hydrate of formula (I) of the present invention is stored under an extremely high-moisture condition, its moisture content don't increases substantially, thus, it is non-hygroscopic. In contrast, an alkaline metal salt of bepotastine, e.g., lithium salt, sodium salt, potassium salt, magnesium salt or barium salt of bepotastine; a transition metal salt of bepotastine, e.g., zinc salt, aluminum salt, bismuth salt, or iron salt of bepotastine; an organic amine salt of bepotastine, e.g., ammonium salt, ethyl amine salt, dimethyl amine salt, triethylamine salt or N-methyl glucamine salt of bepotastine; and an amino acidic salt of the bepotastine, e.g., arginine salt, lysine salt, or histidine salt of bepotastine, are mostly obtained as non-crystalline forms, and, even when they are obtained as crystalline forms, they are hygroscopic.

[2] = Effect of severe storage condition on the optical purity (chiral HPLC); assay type: physicochemical; conditions: for Change of optical purity during the storage / Optical purity (%) After standing at 60° C. and 75% R.H. for 4 weeks in closed condition / Optical purity (%) After standing at 60° C. and 75% R.H. for 4 weeks in open condition: 60° C., 75% R.H., 4 weeks
Method: For the measurement of the optical purity of the bepotastine, chiral HPLC was conducted under following conditions and the optical purity was calculated using the Equation 1.
• Detector: Ultraviolet ray spectrophotometer (detection wavelength: 225 nm) • Column: YMC Chiral β-CDs (4.6×250 mm, 5 μm) • Mobile phase: methanol/ammonium acetate buffer solution=45/55(v/v, %) • Flow rate: 0.8 ml/min
Optical Purity (%)=Ps/(Ps+Pr)×100 Equation 1
wherein • Ps is the peak area of bepotastine, and • Pr is the peak area of R-enantiomer of bepotastine.
The optical purities of respective bepotastine salts were determined.

Moisture absorption test = assay type: physicochemical
[3] = 40° C. and 75% relative humidity
Source text: Accordingly, there have been attempts to convert bepotastine to an acid salt form having a high optical purity which is resistant to racemization.

[4] = Solubility test (saturation solubility); conditions: for Saturation solubility (mg/ml) pH 1.2 buffer solution: pH 1.2 buffer solution (simulates gastric juice); for Saturation solubility (mg/ml) pH 6.8 buffer solution: pH 6.8 buffer solution (simulates intestinal juice)

In the case of `NCCCC[C@H](N)C(=O)O` [L-Lysine], the Hygroscopicity [1] is reported as “Hygroscopic”.
In the case of `O=C(O)CCCN1CCC(O[C@@H](c2ccc(Cl)cc2)c2ccccn2)CC1.O=S(=O)(O)c1ccccc1` [Benzenesulfonic acid salt, Bepotastine Benzenesulfonic Acid Salt], the “Change of optical purity during the storage” value [2] is reported as “decreases significantly”, the “Optical purity (%) After standing at 60° C. and 75% R.H. for 4 weeks in closed condition” value [2] is reported as 97.3% and the “Optical purity (%) After standing at 60° C. and 75% R.H. for 4 weeks in open condition” value [2] is reported as 95.5%. For the same compound, the “Optical purity (%) Before the test” value [2] was 99.9%, the “Water contents (%) Day 1” value (Moisture absorption test; 25° C., 75% R.H.) was 0.6% and the “Water contents (%) Day 3” value (Moisture absorption test; 25° C., 75% R.H.) was 0.6%. The “Water contents (%) Day 7” value (Moisture absorption test; 25° C., 75% R.H.) was 0.7%, the “Water contents (%) Day 15” value (Moisture absorption test; 25° C., 75% R.H.) was 0.6% and the “Water contents (%) initial” value (Moisture absorption test; 25° C., 75% R.H.) was 0.4%. For the same compound, the “Water contents (%) Day 1” value (Moisture absorption test; 40° C., 75% R.H.) was 0.7%, the “Water contents (%) Day 3” value (Moisture absorption test; 40° C., 75% R.H.) was 0.8% and the “Water contents (%) Day 7” value (Moisture absorption test; 40° C., 75% R.H.) was 0.8%. The “Water contents (%) Day 15” value (Moisture absorption test; 40° C., 75% R.H.) was 0.9%, the “Water contents (%) initial” value (Moisture absorption test; 40° C., 75% R.H.) was 0.4% and the “Water contents (%) Day 1” value (Moisture absorption test; 40° C., 90% R.H.) was 2.4%. For the same compound, the “Water contents (%) Day 3” value (Moisture absorption test; 40° C., 90% R.H.) was 2.5%, the “Water contents (%) Day 7” value (Moisture absorption test; 40° C., 90% R.H.) was 2.4% and the “Water contents (%) Day 15” value (Moisture absorption test; 40° C., 90% R.H.) was 2.5%. For the same compound, the “Water contents (%) initial” value (Moisture absorption test; 40° C., 90% R.H.) was 0.4%, the “Racemization under high moisture condition” value [3] was “slow racemization” and the “Saturation solubility (mg/ml) pH 1.2 buffer solution” value [4] was 45.0 mg/ml. For the same compound, the “Saturation solubility (mg/ml) pH 6.8 buffer solution” value [4] was 28.1 mg/ml.
For `[Mg]` [Magnesium], the Hygroscopicity [1] was “Hygroscopic”.
In the case of `O=C(O)CCCN1CCC(O[C@@H](c2ccc(Cl)cc2)c2ccccn2)CC1` [Sodium], the Hygroscopicity [1] is reported as “Hygroscopic” and the Hygroscopicity ([1]; listed as sodium salt of bepotastine) is reported as “highly hygroscopic”.
In the case of `O=C(O)CCCN1CCC(O[C@@H](c2ccc(Cl)cc2)c2ccccn2)CC1` [Potassium], the Hygroscopicity ([1]; listed as potassium salt of bepotastine) is reported as “highly hygroscopic”.
With Zinc the Hygroscopicity [1] was “Hygroscopic”.
With `O=C(O)CCCN1CCC(OC(c2ccc(Cl)cc2)c2ccccn2)CC1.O=C(O)c1ccccc1` (stereo not shown) [bepotastine benzoic acid salt] the “Racemization under high moisture condition” value [3] was “slow racemization”.
With `O.O.O=C([O-])CCCN1CCC(O[C@@H](c2ccc(Cl)cc2)c2ccccn2)CC1.O=C([O-])CCCN1CCC(O[C@@H](c2ccc(Cl)cc2)c2ccccn2)CC1.[Ca+2]` [Calcium salt hydrate, Bepotastine Calcium Salt Dihydrate] the “Change of optical purity during the storage” value [2] was “remained unchanged”, the “Optical purity (%) After standing at 60° C. and 75% R.H. for 4 weeks in closed condition” value [2] was 99.9% and the “Optical purity (%) After standing at 60° C. and 75% R.H. for 4 weeks in open condition” value [2] was 99.9%. For the same compound, the “Optical purity (%) Before the test” value [2] was 99.9%, the “Hygroscopicity (conclusion of moisture absorption test)” value (Moisture absorption test) was “essentially non-hygroscopic” and the “Water contents (%) Day 1” value (Moisture absorption test; 25° C., 75% R.H.) was 4.3%. The “Water contents (%) Day 3” value (Moisture absorption test; 25° C., 75% R.H.) was 4.3%, the “Water contents (%) Day 7” value (Moisture absorption test; 25° C., 75% R.H.) was 4.4% and the “Water contents (%) Day 15” value (Moisture absorption test; 25° C., 75% R.H.) was 4.4%. The “Water contents (%) initial” value (Moisture absorption test; 25° C., 75% R.H.) was 4.3%, the “Water contents (%) Day 1” value (Moisture absorption test; 40° C., 75% R.H.) was 4.4% and the “Water contents (%) Day 3” value (Moisture absorption test; 40° C., 75% R.H.) was 4.6%. The “Water contents (%) Day 7” value (Moisture absorption test; 40° C., 75% R.H.) was 4.5%, the “Water contents (%) Day 15” value (Moisture absorption test; 40° C., 75% R.H.) was 4.6% and the “Water contents (%) initial” value (Moisture absorption test; 40° C., 75% R.H.) was 4.3%. The “Increment of water content” value (Moisture absorption test; 40° C., 90% R.H., 15 days) was “less than 0.7%”, the “Water contents (%) Day 1” value (Moisture absorption test; 40° C., 90% R.H.) was 4.7% and the “Water contents (%) Day 3” value (Moisture absorption test; 40° C., 90% R.H.) was 4.9%. The “Water contents (%) Day 7” value (Moisture absorption test; 40° C., 90% R.H.) was 4.9%, the “Water contents (%) Day 15” value (Moisture absorption test; 40° C., 90% R.H.) was 5.0% and the “Water contents (%) initial” value (Moisture absorption test; 40° C., 90% R.H.) was 4.3%. The “Solubility compared with bepotastine benzenesulfonic acid salt” value ([4]; pH 1.2) was “similar”, the “Saturation solubility (mg/ml) pH 1.2 buffer solution” value [4] was 43.2 mg/ml and the “Solubility relative to bepotastine benzenesulfonic acid salt” value ([4]; pH 6.8) was “at least 2 times”. The “Saturation solubility (mg/ml) pH 6.8 buffer solution” value [4] was 61.6 mg/ml.
For L-Arginine, the Hygroscopicity [1] was “Hygroscopic”.
